Key:
[1] = UV-visible absorption and fluorescence spectra, fluorescence quantum yields in solution; assay type: physicochemical; settings: for Quantum yield: methylene chloride solution, fluorescein standard (Table 10, Example 14)
Method: ^1H NMR and ^13C NMR spectra were taken on a 400 MHz Varian Unity Inova spectrophotometer instrument. ^1H and ^13C NMR spectra were recorded in CDCl3, chemical shifts (δ) are given in ppm relative to solvent peaks (1H: δ 7.26; 13C: δ 77.3) as internal standard. UV spectra were taken on a Hewlett Packard 8452A Diode Array UV-visible spectrophotometer. Fluorescence spectra were recorded on a Spex Fluorolog 1681 0.22 m steady-state fluorometer. Fluorescence quantum yields of BODIPY dyes and polymers were measured in methylene chloride and DMF, and calculated by using fluorescein excited at 490 nm in 0.1 N NaOH as the reference absolute quantum efficiency (φn=85%). Molecular weights of the polymers were determined by gel permeation chromatography (“GPC”) by using a Waters Associates Model 6000A liquid chromatograph. Three American Polymer Standards Corp. Ultrastyragel columns in series with porosity indices of 10^3, 10^4, and 10^5 Å were used and housed in an oven thermostated at 30° C. Mobile phase was HPLC grade THF which was filtered and degassed by vacuum filtration through a 0.5 μm fluoropore filter prior to use. The polymers were detected by a Waters Model 440 ultraviolet absorbance detector at a wavelength of 254 nm and a Waters Model 2410 refractive index detector. Molecular weights were measured relative to polystyrene standards. An Enraf Nonius CAD-4 X-Ray diffractometer was used in the crystal structure determination. The windows program WinGX was used as the interface for the solution and refinement of the model. The data were first reduced and corrected for absorption using the psi-scans, and then solved using the program SIR2004. The model was refined using SHELXL97.
(§1) ^1H NMR and ^13C NMR spectra were taken on a 400 MHz Varian Unity Inova spectrophotometer instrument. ^1H and ^13C NMR spectra were recorded in CDCl3, and chemical shifts (5) are given in ppm relative to solvent peaks (at 7.24 ppm for ^1H spectra and at 77.3 for ^13C spectra) as internal standard. UV spectra were taken on a Hewlett-Packard 8452A Diode Array UV-visible spectrophotometer. Fluorescence spectra were recorded on a Spex Fluorolog 1681 0.22 m steady-state fluorometer. Fluorescence quantum yields of BODIPY dyes and polymers were measured in methylene chloride and calculated by using fluorescein excited at 490 nm in 0.1 N NaOH as the reference (its quantum efficiency of 85%). Fluorescence lifetimes were measured on a GL-3300 Nitrogen Laser laserstrobe PTI instrument and analyzed using FeliX32 software.
^1H NMR and ^13C NMR spectra were taken on a 400 MHz Varian Unity Inova spectrophotometer instrument. ^1H and ^13C NMR spectra were recorded in CDCl3, chemical shifts (δ) are given in ppm relative to solvent peaks (^1H: δ 7.26; ^13C: δ 77.3) as internal standard. UV spectra were taken on a Hewlett Packard 8452A Diode Array UV-visible spectrophotometer. Fluorescence spectra were recorded on a Spex Fluorolog 1681 0.22 m steady-state fluorometer. Fluorescence quantum yields of BODIPY dyes and polymers were measured in methylene chloride and DMF, and calculated by using fluorescein excited at 490 nm in 0.1 N NaOH as the reference quantum efficiency (φn=85%).^30,31 Molecular weights of the polymers were determined by gel permeation chromatography (GPC) by using a Waters Associates Model 6000A liquid chromatograph. Three American Polymer Standards Corp. Ultrastyragel columns in series with porosity indices of 10^3, 10^4, and 10^5 Å were used and housed in an oven thermostated at 30° C. Mobile phase was HPLC grade THF which was filtered and degassed by vacuum filtration through a 0.5 μm fluoropore filter prior to use. The polymers were detected by a Waters Model 440 ultraviolet absorbance detector at a wavelength of 254 nm and a Waters Model 2410 refractive index detector. Molecular weights were measured relative to polystyrene standards. […]

[2] = Fluorescence lifetime measurement; assay type: physicochemical
Method: as §1
^1H NMR and ^13C NMR spectra were taken on a 400 MHz Varian Unity Inova spectrophotometer instrument. ^1H and ^13C NMR spectra were recorded in CDCl3, and chemical shifts (δ) are given in ppm relative to solvent peaks (^1H, δ 7.26; ^13C, δ 77.3) as internal standard. UV spectra were taken on a Hewlett-Packard 8452A Diode Array UV-visible spectrophotometer. Fluorescence spectra were recorded on a Spex Fluorolog 1681 0.22 m steady-state fluorometer. Fluorescence quantum yields of BODIPY dyes and polymers were measured in methylene chloride and calculated by using fluorescein exCIted at 490 nm in 0.1 N NaOH as the reference (quantum effiCIency, cPn=85%). Fluorescence lifetimes were measured on a 010-3300 Nitrogen Laser laserstrobe PTI instrument and analyzed using FeliX32 software. Molecular weights of the polymers were determined by gel permeation chromatography (OPC) by using a Waters AssoCIates model 6000A liquid chromatograph. Three American Polymer Standards Corp. ultrastyragel columns in series with porosity indices of 103, 104, and 105 A were used and housed in an oven thermostatted at 30° C. The mobile phase was HPLC grade THF which was filtered and degassed by vacuum filtration through a 0.5, urn fluoropore filter prior to use. The polymers were detected by a Waters Model 440 ultraviolet absorbance detector at a wavelength of 254 nm and a Waters Model 2410 refractive index detector. Molecular weights were determined relative to polystyrene standards.

[3] = methylene chloride solution (Table 9, Example 13)
[4] = methylene chloride solution (Table 10, Example 14)

| Compound | Absorption maxima [1, 3] | Emission maxima [1, 3] | Stokes shift [1, 3] | Absorption maxima [1, 4] | Emission maxima [1, 4] | Quantum yield [1] | Fluorescence lifetime [2, 3] | Fluorescence lifetime [2, 4] |
| --- | --- | --- | --- | --- | --- | --- | --- | --- |
| C#CC1=C(C)C2=C(c3ccc(OCCCCCCCCCCCC)cc3)c3c(C)c(C#C)c(C)n3[B-](F)(F)[N+]2=C1C [Compound 6a] | 539 nm | 551 nm | 12 nm | 538 nm | 552 nm | 63% | 3.6 ns | 4.2 ns |
| C#CC1=C(C)C2=C(c3ccc(OCCCCCCCCCCCC)c(OCCCCCCCCCCCC)c3)c3c(C)c(C#C)c(C)n3[B-](F)(F)[N+]2=C1C [Compound 6b] | 540 nm | 5.52 nm | 12 nm | 539 nm | 553 nm | 67% | 3.9 ns | 5.9 ns |
| C#CC1=C(C)C2=C(c3cc(OCCCCCCCCCCCC)c(OCCCCCCCCCCCC)c(OCCCCCCCCCCCC)c3)c3c(C)c(C#C)c(C)n3[B-](F)(F)[N+]2=C1C [Compound 6c] | 541 nm | 553 nm | 12 nm | – | – | – | 3.0 ns | – |

Source: US9623123B2, “Fluorescent conjugated polymers with a bodipy-based backbone and uses thereof” (Michigan Technological University, priority 2008, dated 2017)
